Measurements published in US9364479B2, “Use of a receptor-type kinase modulator for treating polycystic kidney disease” (SYMPHONY EVOLUTION, INC., priority 2010, dated 2016).
Marks after values point to notes of the source that are not given here.

Legend:
[1] = molecular target: ErbB2 (Homo sapiens, UniProt P04626); test: AlphaScreen tyrosine kinase assay; type: biochemical; design: residues Q679-V1255 of human ErbB2, Proqinase; purchased Proqinase; details: ATP at Km
From the text: Dose-response experiments were done using 10 different inhibitor concentrations in 384-well microtiter plates. The ATP concentration used for each assay was equivalent to the Km for each kinase.
An AlphaScreen tyrosine kinase assay was used to measure ErbB2 and Flt-4 activity. Donor beads coated with streptavidin and acceptor beads coated with PY100 anti-phosphotyrosine antibody (Perkin-Elmer) were used. Biotinylated poly(Glu,Tyr) 4:1 was used as the substrate. Substrate phosphorylation was measured by luminescence following donor-acceptor bead addition followed by complex formation. Test compound, 3 μmol/L ATP, 3 nmol/L biotinylated poly(Glu,Tyr) 4:1, and 1 nmol/L ErbB2 (residues Q679-V1255 of human ErbB2, Proqinase) or Flt-4 (residues D725-R1298 of human Flt-4, Proqinase) were combined in a volume of 20 μL Assay Buffer (20 mM TrisHCl, pH 7.5, 10 mM MgCl2, 3 mM MnCl2, 1 mM DTT, 0.01% Triton) in a 384-well white, medium-binding microtiter plate (Greiner). Reaction mixtures were incubated for 1 h at room temperature. Reactions were quenched by addition of 10 μL of 15 to 30 μg/mL AlphaScreen bead suspension containing 75 mmol/L HEPES (pH 7.4), 300 mmol/L NaCl, 120 mmol/L EDTA, 0.3% bovine serum albumin, and 0.03% Tween 20. After 2 to 16 h of incubation at room temperature, plates were read using an AlphaQuest reader (Perkin-Elmer).

[2] = system: A431 tumors; test: Immunohistochemical analysis of A431 tumors; type: in vivo, mouse; details: 14-day dosing
Method: (§1) For immunohistochemical analysis of H1975, MDA-MB-231 and other xenografts, tumors were excised after euthanasia and fixed in zinc fixative (BD Biosciences) for 48 h before being processed into paraffin blocks. Serial sections at 5 μm were obtained from the area of largest possible surface for each tumor and stained using standard methods. The following antibodies were used: Ki67 (SP6; Labvision), CD31 (MECA.32; BD Biosciences), pERK^Thr202/Tyr204 (phospho-p44/42 mitogen-activated protein kinase; Cell Signaling Technology), pAKT^Ser473 (Cell Signaling Technology), and pEGFR^Tyr1068 (Cell Signaling Technology). For immunofluorescent staining, sections were then incubated with Alexa 594-conjugated goat anti-rabbit secondary antibody (Invitrogen) and mounted in Fluorescent Mounting Medium (DAKO) containing 4′,6-diamidino-2-phenylindole (Molecular Probes) as a nuclear counterstain. Fluorescent staining was visualized using a Zeiss Axiolmager and digitally captured using a Zeiss high-resolution camera coupled to AxioVision image analysis software. Two to three nonoverlapping representative fields were captured at ×200 or ×400 magnification depending on histologic readout and quantified using the integrated morphometric analysis functions in Metamorph software (Universal Imaging Corp.). Apoptotic cells were detected using terminal deoxynucleotidyl transferase-mediated dUTP nick end labeling in situ cell death detection kit according to the manufacturer's instructions (Roche Diagnostics GmbH).
(§2) CD31-positive tumor vessels, Ki67-positive proliferating cells, and pERK staining in each tumor section were identified and quantified using the integrated morphometric analysis functions in the ACIS automatic cellular imaging system (Clarient, Inc.) and reviewed by a blinded observer. Number of CD31-positive vessels were identified across 5 to 10 randomly chosen fields of equal size at ×100 magnification in viable tumor tissue and calculated as number of vessels per square millimeter for each tumor, averaged for each treatment group, and compared with vehicle-treated controls. Percentage Ki67-positive cells were calculated as the ratio between Ki67-positive cells divided by the total number of cells identified across 5 to 10 randomly chosen fields of equal size in viable tumor tissue. The results for each tumor and treatment group were averaged and compared with vehicle-treated controls. The level of pERK staining was determined as described above and calculated as the ratio of antibody staining divided by the total number of cells identified, averaged for each treatment group, and compared with vehicle-treated controls.

[3] = system: BT474 human tumor xenograft; test: BT474 xenograft, tumor growth; type: in vivo; details: Mus musculus
Method: (§3) The response of tumors to treatment was determined by comparing the mean tumor weight of the treatment group with the appropriate control group. Percentage inhibition of tumor growth was determined with the following formula: Percentage inhibition=100×[1−(Xf−Xo)/(Yf−Yo)], where Xf and Yf are the mean tumor weights of the treatment and control groups, respectively, on day f, and Xo and Yo are the mean tumor weights of treatment and control groups respectively, on day zero (staged tumor weights after grouping)

[4] = molecular target: T1, Endothelin, ET-A (Human) (Homo sapiens, UniProt P25101); test: NovaScreen assay; type: binding; details: read-out: Inhibition, 10 μM XL-647
T1 construct: NovaScreen
T1 sequence (P25101 21-427): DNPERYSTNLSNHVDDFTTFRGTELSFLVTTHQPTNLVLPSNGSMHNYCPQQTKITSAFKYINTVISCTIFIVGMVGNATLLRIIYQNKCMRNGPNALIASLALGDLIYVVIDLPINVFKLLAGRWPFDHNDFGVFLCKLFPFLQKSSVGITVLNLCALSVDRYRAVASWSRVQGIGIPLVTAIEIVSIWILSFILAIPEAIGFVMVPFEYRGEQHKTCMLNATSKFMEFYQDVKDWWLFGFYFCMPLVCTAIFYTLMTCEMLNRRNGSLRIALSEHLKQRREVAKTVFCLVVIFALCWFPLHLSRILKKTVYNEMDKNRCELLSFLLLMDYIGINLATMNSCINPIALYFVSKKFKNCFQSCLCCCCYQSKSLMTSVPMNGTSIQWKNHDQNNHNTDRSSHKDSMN

[5] = human, in vivo
[6] = molecular target: EphA2 (Homo sapiens, UniProt P29317); test: EphA2 autophosphorylation ELISA, PC-3 cells; type: cell-based; details: read-out: Cellular IC50, autophosphorylation
Sequence of EphA2 (P29317 24-976): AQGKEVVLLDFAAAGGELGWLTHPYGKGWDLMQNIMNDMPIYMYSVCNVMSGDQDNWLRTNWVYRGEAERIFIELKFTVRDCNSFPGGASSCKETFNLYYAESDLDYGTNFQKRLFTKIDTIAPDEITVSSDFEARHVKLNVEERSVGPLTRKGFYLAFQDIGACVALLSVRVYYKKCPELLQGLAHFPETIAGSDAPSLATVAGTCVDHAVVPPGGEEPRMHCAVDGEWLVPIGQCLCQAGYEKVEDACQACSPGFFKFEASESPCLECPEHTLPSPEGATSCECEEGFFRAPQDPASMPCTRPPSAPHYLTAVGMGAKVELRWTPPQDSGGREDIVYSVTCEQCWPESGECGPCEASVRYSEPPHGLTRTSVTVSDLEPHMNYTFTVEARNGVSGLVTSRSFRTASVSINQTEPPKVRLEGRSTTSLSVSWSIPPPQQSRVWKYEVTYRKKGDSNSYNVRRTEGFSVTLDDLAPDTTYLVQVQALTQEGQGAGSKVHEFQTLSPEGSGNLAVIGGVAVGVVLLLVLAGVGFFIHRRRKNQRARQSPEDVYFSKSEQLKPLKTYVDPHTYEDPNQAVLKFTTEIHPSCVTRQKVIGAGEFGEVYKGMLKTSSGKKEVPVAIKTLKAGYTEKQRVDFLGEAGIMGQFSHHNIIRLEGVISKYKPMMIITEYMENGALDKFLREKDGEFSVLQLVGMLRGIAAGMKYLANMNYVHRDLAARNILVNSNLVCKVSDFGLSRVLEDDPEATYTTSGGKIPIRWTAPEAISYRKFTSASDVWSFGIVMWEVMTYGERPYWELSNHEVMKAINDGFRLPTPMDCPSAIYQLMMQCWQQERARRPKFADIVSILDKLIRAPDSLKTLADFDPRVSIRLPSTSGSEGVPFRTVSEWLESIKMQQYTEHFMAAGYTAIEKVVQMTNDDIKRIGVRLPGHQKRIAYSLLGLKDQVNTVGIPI
Method: The EphA2 autophosphorylation ELISA utilized PC-3 (ATCC) cells. Cells were seeded at 2.5×10^4 cells/well onto 96-well microtiter plates (Costar 3904), in DMEM (Cellgro) containing 10% FBS (Heat-Inactivated, Hyclone), 1% penicillin-streptomycin (Cellgro), and 1% NEAA solution (Cellgro). The cells were then incubated at 37° C., 5% CO2 for 16 h. Growth media was replaced with serum-free DMEM and cells were incubated for an additional 24 hr. […] Negative control wells were not treated with growth factor. After treatment, media was removed, the cell monolayer washed with cold PBS and immediately lysed with cold lysis buffer. Lysates were centrifuged and incubated into 96-well streptavidin-coated plates (Pierce) coated with biotin-conjugated, mouse anti-phosphotyrosine, PY20 (2 μg/ml, Calbiochem). Plates were incubated with rabbit polyclonal anti-EphA2, C-20 (1:500, Santa Cruz Biotechnology, Inc), followed by secondary antibody (HRP-conjugated, goat anti-rabbit IgG, 1:1000 from Cell Signaling) and the addition of a luminol-based substrate solution. Plates were read with a Victor spectrophotometer (Wallac).

[7] = system: HT-29 human tumor xenograft; test: HT-29 xenograft, tumor growth; type: in vivo; details: Mus musculus
Method: as §3

[8] = molecular target: T2, Cholecystokinin, CCK2 (CCKB) (Homo sapiens, UniProt P32239); test: NovaScreen assay; type: binding; details: read-out: Inhibition, 10 μM XL-647
T2 construct: NovaScreen
T2 sequence (P32239 whole entry): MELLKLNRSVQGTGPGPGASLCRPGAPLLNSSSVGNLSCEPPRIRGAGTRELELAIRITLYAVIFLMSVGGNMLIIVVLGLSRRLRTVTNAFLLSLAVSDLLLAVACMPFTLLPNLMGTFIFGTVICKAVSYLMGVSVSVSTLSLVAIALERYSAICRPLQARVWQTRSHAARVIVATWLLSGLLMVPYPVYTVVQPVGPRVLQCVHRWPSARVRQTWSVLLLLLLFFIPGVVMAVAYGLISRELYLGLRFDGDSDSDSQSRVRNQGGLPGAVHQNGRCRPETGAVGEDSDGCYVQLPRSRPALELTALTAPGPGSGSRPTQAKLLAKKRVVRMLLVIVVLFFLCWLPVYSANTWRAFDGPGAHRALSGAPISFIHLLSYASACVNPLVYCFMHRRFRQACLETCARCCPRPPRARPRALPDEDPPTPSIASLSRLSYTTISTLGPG

[9] = molecular target: T3, Testosterone (cytosolic) (Homo sapiens, UniProt P10275); test: NovaScreen assay; type: binding; details: read-out: Inhibition, 10 μM XL-647
T3 construct: NovaScreen
T3 sequence (P10275 whole entry): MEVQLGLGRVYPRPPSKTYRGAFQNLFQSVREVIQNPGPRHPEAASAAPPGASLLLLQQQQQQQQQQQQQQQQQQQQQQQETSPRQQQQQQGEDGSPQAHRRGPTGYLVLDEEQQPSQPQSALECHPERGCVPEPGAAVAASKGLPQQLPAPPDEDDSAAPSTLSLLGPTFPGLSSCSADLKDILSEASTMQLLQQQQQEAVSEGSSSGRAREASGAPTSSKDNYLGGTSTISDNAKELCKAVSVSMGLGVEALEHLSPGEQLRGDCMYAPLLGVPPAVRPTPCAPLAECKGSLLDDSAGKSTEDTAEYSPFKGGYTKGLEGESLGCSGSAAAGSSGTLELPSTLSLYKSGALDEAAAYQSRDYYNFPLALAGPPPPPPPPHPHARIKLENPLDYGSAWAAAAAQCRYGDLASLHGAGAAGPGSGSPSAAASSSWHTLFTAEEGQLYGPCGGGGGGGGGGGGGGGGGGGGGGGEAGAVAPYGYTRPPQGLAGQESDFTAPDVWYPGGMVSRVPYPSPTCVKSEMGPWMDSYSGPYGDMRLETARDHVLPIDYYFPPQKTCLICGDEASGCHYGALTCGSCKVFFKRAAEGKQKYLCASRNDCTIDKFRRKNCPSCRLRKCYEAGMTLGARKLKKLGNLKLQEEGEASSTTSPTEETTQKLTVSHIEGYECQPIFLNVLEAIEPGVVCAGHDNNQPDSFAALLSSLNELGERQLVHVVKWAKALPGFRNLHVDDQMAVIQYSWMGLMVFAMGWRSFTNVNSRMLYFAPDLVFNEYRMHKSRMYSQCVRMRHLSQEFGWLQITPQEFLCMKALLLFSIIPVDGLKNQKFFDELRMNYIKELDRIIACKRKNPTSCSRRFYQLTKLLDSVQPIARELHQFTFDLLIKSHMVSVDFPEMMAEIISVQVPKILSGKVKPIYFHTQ

[10] = molecular target: T4, Dopamine Transporter (Homo sapiens, UniProt Q01959); test: NovaScreen assay; type: binding
T4 construct: NovaScreen
T4 sequence (Q01959 whole entry): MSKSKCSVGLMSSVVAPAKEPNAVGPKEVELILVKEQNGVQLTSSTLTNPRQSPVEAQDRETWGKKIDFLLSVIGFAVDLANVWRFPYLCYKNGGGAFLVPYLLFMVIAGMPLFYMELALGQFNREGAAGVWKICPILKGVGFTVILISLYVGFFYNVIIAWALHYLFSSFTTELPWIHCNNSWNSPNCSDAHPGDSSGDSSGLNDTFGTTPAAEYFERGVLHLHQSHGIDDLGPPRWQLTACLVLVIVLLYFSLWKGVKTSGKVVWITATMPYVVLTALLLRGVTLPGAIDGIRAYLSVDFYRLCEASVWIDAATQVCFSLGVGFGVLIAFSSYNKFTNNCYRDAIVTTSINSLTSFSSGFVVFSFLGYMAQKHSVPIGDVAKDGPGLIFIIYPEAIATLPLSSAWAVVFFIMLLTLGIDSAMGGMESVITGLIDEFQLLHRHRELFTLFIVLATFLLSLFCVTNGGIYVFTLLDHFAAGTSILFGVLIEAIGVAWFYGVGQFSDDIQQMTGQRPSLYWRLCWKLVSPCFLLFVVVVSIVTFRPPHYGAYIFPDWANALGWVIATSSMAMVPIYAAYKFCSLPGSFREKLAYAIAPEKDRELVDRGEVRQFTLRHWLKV

[11] = system: H1975 xenografts; test: Immunohistochemical analysis of H1975 xenografts (TUNEL, CD31, Ki67); type: in vivo, mouse; details: 14-day dosing
Method: as §1, §2
Results are presented as mean±SD or SE as indicated for each graph or table. For IC50 comparison in the A431 cell viability experiment, two sample Student's t tests were applied to determine P values for each IC50 pair assuming that the random fluctuations of replicates around the dose-response curve are distributed [log]normally with the individual replicates used as the ‘sample size’ for the t test (nine point dose response done in triplicate). For statistical analysis of immunohistochemical results from in vivo studies, two-tailed Student's t test analysis and Bonferroni correction were done to identify significant differences compared with vehicle control group (multiple use of a single vehicle control group) with a cumulative minimal requirement of P<0.05.

[12] = molecular target: T5, PKA (Bos taurus, UniProt P00517); test: Chemiluminescent kinase assay; type: biochemical, bovine
T5 construct: Bovine (Heart),; purchased Upstate Biotechnology; host or cells: bovine heart
Method: Further screening was performed using the biochemical assay methods of Example 2. Additional description of the components and concentrations are summarized in Table 8, Table 9, and Table 10, below.

[13] = system: Nicotinic (a-bungarotoxin insensitive); test: NovaScreen assay; type: binding
[14] = Clinical safety data, 159 subjects with cancer; details: human, in vivo

Sequence of ErbB2 (P04626 679-1255): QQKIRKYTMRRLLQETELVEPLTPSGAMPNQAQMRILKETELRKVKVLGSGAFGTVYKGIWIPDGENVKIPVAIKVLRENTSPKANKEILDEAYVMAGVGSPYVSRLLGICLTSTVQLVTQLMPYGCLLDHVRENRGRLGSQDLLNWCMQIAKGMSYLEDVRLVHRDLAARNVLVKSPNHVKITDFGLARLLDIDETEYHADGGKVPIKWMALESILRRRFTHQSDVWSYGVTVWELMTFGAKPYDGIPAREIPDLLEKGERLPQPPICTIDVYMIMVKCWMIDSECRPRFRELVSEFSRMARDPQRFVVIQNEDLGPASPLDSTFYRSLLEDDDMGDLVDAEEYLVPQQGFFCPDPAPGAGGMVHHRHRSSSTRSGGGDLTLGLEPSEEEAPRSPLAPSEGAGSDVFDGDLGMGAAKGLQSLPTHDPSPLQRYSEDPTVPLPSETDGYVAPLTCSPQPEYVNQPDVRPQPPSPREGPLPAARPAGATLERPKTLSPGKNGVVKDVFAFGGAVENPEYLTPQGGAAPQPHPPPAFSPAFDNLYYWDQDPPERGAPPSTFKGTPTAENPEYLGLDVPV

COc1cc2c(Nc3ccc(Cl)c(Cl)c3F)ncnc2cc1OC[C@@H]1C[C@@H]2CN(C)C[C@@H]2C1 [XL-647, N-(3,4-dichloro-2-fluorophenyl)-7-({[(3aR,5r,6aS)-2-methyloctahydrocyclopenta[c]pyrrol-5-yl]methyl}oxy)-6-(methyloxy)quinazolin-4-amine]
IC50 [1]: 16 ± 3 nM | CD31 Analysis % Reduction ([2]; 10 mg/kg): 33.5% | CD31 Analysis MVC ([2]; 10 mg/kg): 18.6 | Ki67 Expression % Reduction ([2]; 10 mg/kg): 53.3% | Ki67 Expression % of Cells ([2]; 10 mg/kg): 17.6% | Necrosis % Increase ([2]; 10 mg/kg): 20.7% | CD31 Analysis % Reduction ([2]; 30 mg/kg): 43.2% | CD31 Analysis MVC ([2]; 30 mg/kg): 15.9 | Ki67 Expression % Reduction ([2]; 30 mg/kg): 67.2% | Ki67 Expression % of Cells ([2]; 30 mg/kg): 12.3% | Necrosis % Increase ([2]; 30 mg/kg): 26.5% | CD31 Analysis % Reduction ([2]; 100 mg/kg): 87.3% | CD31 Analysis MVC ([2]; 100 mg/kg): 3.6 | Ki67 Expression % Reduction ([2]; 100 mg/kg): 82.6% | Ki67 Expression % of Cells ([2]; 100 mg/kg): 6.5% | Necrosis % Increase ([2]; 100 mg/kg): 61.7% | ED50 ([3]; BT-474, qd × 14): 9.8 mg/kg | ED50 ([3]; BT-474, qd × 28): 21.9 mg/kg | inhibition at 10 µM [4]: -11.1% | dose proportionality of AUC and Cmax, in words [5]: generally increased in proportion with dose | IC50 [6]: 1100 nM | ED50 ([7]; HT-29, qd × 14): 20.2 mg/kg | ED50 ([7]; HT-29, qd × 28): 16 mg/kg | inhibition at 10 µM [8]: 17.1% | inhibition at 10 µM [9]: 18.1% | IC50 [10]: 2480 nM | inhibition at 10 µM ([10]; read-out: Inhibition, 10 μM XL-647): 87.1% | CD31 Analysis % Reduction ([11]; 10 mg/kg): 30.0^b % | CD31 Analysis MVC ([11]; 10 mg/kg): 44 | Ki67 Expression % Cells ([11]; 10 mg/kg): 27% | Ki67 Expression % Reduction ([11]; 10 mg/kg): 23.2^b % | TUNEL % Cells ([11]; 10 mg/kg): 6% | CD31 Analysis % Reduction ([11]; 30 mg/kg): 46.1^a % | CD31 Analysis MVC ([11]; 30 mg/kg): 34 | Ki67 Expression % Cells ([11]; 30 mg/kg): 20% | Ki67 Expression % Reduction ([11]; 30 mg/kg): 41.9^a % | TUNEL % Cells ([11]; 30 mg/kg): 11% | CD31 Analysis % Reduction ([11]; 100 mg/kg): 69.6^a % | CD31 Analysis MVC ([11]; 100 mg/kg): 19 | Ki67 Expression % Cells ([11]; 100 mg/kg): 8.9% | Ki67 Expression % Reduction ([11]; 100 mg/kg): 74.6^a % | TUNEL % Cells ([11]; 100 mg/kg): 15% | IC50 [12]: > 10000 nM | Inhibition, 10 μM XL-647 [13]: 53.97% | deaths attributed to study drug [14]: no deaths attributed to study drug
